Reference: ChEMBL document CHEMBL3611986, “Reversal of P-gp and BCRP-mediated MDR by tariquidar derivatives” (Eur J Med Chem, 2015)

System: HCT-116
Assay: Cytotoxicity against human HCT116 cells assessed as cell viability after 48 hrs by MTT assay
Type: cell-based
Conditions: HCT-116, 48 h; call rule not given here

Structure (SMILES)	IC50 [µM]
COc1cc2c(cc1OC)CN(CCc1ccc(NC(=O)c3ccccc3NC(=O)c3ccc(F)cc3[N+](=O)[O-])cc1)CC2	> 100

System: SW-620
Assay: Cytotoxicity against human SW620 cells assessed as cell viability after 48 hrs by MTT assay
Type: cell-based
Conditions: SW-620, 48 h

Structure (SMILES)	IC50 [µM]
COc1cc2c(cc1OC)CN(CCc1ccc(NC(=O)c3ccccc3NC(=O)c3ccc(F)cc3[N+](=O)[O-])cc1)CC2	> 100

System: not listed separately
Assay: Cytotoxicity against human SW620/AD300 cells assessed as cell viability after 48 hrs by MTT assay
Type: cell-based
Conditions: SW-620, 48 h

Structure (SMILES)	IC50 [µM]
COc1cc2c(cc1OC)CN(CCc1ccc(NC(=O)c3ccccc3NC(=O)c3ccc(F)cc3[N+](=O)[O-])cc1)CC2	> 100

System: not listed separately
Assay: Cytotoxicity against human CCD-18Co cells assessed as cell viability after 48 hrs by MTT assay
Type: cell-based
Conditions: not given

Structure (SMILES)	IC50 [µM]
COc1cc2c(cc1OC)CN(CCc1ccc(NC(=O)c3ccccc3NC(=O)c3ccc(F)cc3[N+](=O)[O-])cc1)CC2	> 100

System: not listed separately
Assay: Cytotoxicity against human HFE cells assessed as cell viability after 72 hrs by MTT assay
Type: cell-based
Conditions: not given

Structure (SMILES)	IC50 [µM]
COc1cc2c(cc1OC)CN(CCc1ccc(NC(=O)c3ccccc3NC(=O)c3ccc(F)cc3[N+](=O)[O-])cc1)CC2	> 10

System: Hepatocyte
Assay: Cytotoxicity against rat hepatocytes assessed as cell viability after 72 hrs by MTT assay
Type: cell-based
Conditions: Rattus norvegicus, Hepatocyte

Structure (SMILES)	IC50 [µM]
COc1cc2c(cc1OC)CN(CCc1ccc(NC(=O)c3ccccc3NC(=O)c3ccc(F)cc3[N+](=O)[O-])cc1)CC2	100

Target: T1, ATP-dependent translocase ABCB1 (Homo sapiens, UniProt P08183)
Assay: Inhibition of p-glycoprotein-mediated rhodamine-123 efflux in human K562/p-gp cells at 0.5 uM after 1 hr by flow cytometry relative to tariquidar
Type: cell-based
Conditions: 1 h, 0.5 µM

T1 sequence (P08183 whole entry): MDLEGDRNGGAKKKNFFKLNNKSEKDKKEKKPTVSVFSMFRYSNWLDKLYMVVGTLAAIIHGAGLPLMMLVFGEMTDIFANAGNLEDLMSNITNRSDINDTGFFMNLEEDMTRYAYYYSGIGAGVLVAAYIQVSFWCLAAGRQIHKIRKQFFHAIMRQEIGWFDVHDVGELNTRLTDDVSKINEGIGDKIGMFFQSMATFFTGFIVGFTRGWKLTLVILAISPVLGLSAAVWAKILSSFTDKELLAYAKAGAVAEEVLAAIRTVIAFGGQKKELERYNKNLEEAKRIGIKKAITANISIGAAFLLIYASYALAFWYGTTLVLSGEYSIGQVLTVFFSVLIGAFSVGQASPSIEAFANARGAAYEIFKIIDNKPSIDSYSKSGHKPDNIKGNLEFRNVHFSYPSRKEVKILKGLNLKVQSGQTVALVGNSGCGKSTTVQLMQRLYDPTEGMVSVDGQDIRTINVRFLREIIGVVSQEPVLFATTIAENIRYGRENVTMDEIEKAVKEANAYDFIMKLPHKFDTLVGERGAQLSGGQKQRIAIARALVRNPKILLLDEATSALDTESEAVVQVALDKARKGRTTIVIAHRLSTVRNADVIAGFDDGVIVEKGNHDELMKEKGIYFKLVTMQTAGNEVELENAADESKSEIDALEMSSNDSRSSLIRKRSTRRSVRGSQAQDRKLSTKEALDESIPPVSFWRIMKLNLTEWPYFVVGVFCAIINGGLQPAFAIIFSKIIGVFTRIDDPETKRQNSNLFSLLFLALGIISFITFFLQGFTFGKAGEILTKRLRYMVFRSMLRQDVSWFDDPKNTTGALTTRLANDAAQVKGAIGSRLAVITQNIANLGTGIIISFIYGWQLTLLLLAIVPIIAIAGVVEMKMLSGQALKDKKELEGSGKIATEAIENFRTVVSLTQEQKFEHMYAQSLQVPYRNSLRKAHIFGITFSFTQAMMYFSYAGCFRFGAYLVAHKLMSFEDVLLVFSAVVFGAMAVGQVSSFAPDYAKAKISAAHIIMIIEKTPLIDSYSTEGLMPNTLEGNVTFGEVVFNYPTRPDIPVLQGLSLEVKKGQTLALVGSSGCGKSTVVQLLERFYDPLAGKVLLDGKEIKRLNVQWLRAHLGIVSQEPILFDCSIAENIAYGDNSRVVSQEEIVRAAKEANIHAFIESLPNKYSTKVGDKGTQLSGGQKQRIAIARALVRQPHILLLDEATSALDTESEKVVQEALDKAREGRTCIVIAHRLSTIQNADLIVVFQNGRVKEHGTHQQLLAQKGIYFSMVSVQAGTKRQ

Structure (SMILES)	inhibition (INH)
COc1cc2c(cc1OC)CN(CCc1ccc(NC(=O)c3ccccc3NC(=O)c3ccc(F)cc3[N+](=O)[O-])cc1)CC2	Active

Target: T1, ATP-dependent translocase ABCB1
Assay: Inhibition of p-glycoprotein-mediated rhodamine-123 efflux in human K562/p-gp cells after 1 hr by flow cytometry
Type: cell-based
Conditions: not given

Structure (SMILES)	inhibition (INH)
COc1cc2c(cc1OC)CN(CCc1ccc(NC(=O)c3ccccc3NC(=O)c3ccc(F)cc3[N+](=O)[O-])cc1)CC2	Dose-dependent effect

System: K562
Assay: Effect on rhodamine-123 efflux in wild type human K562 cells at 0.5 uM after 1 hr by flow cytometry
Type: ADME, cell-based
Conditions: k562, 1 h

Structure (SMILES)	Activity
COc1cc2c(cc1OC)CN(CCc1ccc(NC(=O)c3ccccc3NC(=O)c3ccc(F)cc3[N+](=O)[O-])cc1)CC2	Non-toxic

Target: T2, BCRP (ABCG2) (Homo sapiens, UniProt Q9UNQ0)
T2 sequence (Q9UNQ0 whole entry): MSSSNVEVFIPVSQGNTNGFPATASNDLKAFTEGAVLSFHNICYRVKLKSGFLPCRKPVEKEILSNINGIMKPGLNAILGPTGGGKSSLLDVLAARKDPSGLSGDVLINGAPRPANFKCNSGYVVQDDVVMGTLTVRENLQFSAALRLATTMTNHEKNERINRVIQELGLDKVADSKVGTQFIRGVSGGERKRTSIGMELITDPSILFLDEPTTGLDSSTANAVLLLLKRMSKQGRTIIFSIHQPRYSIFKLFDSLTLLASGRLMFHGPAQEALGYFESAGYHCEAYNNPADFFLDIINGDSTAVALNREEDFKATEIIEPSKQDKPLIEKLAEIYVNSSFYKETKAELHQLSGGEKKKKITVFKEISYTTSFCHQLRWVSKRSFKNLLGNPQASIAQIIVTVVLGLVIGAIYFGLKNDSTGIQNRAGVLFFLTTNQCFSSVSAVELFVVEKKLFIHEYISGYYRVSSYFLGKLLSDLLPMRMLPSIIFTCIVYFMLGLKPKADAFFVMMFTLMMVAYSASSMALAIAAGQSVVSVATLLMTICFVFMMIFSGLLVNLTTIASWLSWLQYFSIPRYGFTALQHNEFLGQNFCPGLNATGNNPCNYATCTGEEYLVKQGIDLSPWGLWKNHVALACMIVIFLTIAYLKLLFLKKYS
Assay: Inhibition of BCRP-mediated pheophorbide-A efflux in human K562/BCRP cells at 0.5 uM after 1 hr by flow cytometry
Type: cell-based
Conditions: K562/BCRP cells, probe pheophorbide-A

Structure (SMILES)	inhibition at 1 h, 0.5 µM [%]
COc1cc2c(cc1OC)CN(CCc1ccc(NC(=O)c3ccccc3NC(=O)c3ccc(F)cc3[N+](=O)[O-])cc1)CC2	60

Target: Multidrug resistance-associated protein 1 (Homo sapiens, UniProt P33527)
Assay: Inhibition of MRP1 (unknown origin)-mediated calcein-AM efflux expressed in HEK293/MRP1 cells at 0.5 uM after 1 hr by flow cytometry
Type: cell-based
Conditions: hek293/mrp1, 1 h

Chain of Multidrug resistance-associated protein 1 (P33527 whole entry): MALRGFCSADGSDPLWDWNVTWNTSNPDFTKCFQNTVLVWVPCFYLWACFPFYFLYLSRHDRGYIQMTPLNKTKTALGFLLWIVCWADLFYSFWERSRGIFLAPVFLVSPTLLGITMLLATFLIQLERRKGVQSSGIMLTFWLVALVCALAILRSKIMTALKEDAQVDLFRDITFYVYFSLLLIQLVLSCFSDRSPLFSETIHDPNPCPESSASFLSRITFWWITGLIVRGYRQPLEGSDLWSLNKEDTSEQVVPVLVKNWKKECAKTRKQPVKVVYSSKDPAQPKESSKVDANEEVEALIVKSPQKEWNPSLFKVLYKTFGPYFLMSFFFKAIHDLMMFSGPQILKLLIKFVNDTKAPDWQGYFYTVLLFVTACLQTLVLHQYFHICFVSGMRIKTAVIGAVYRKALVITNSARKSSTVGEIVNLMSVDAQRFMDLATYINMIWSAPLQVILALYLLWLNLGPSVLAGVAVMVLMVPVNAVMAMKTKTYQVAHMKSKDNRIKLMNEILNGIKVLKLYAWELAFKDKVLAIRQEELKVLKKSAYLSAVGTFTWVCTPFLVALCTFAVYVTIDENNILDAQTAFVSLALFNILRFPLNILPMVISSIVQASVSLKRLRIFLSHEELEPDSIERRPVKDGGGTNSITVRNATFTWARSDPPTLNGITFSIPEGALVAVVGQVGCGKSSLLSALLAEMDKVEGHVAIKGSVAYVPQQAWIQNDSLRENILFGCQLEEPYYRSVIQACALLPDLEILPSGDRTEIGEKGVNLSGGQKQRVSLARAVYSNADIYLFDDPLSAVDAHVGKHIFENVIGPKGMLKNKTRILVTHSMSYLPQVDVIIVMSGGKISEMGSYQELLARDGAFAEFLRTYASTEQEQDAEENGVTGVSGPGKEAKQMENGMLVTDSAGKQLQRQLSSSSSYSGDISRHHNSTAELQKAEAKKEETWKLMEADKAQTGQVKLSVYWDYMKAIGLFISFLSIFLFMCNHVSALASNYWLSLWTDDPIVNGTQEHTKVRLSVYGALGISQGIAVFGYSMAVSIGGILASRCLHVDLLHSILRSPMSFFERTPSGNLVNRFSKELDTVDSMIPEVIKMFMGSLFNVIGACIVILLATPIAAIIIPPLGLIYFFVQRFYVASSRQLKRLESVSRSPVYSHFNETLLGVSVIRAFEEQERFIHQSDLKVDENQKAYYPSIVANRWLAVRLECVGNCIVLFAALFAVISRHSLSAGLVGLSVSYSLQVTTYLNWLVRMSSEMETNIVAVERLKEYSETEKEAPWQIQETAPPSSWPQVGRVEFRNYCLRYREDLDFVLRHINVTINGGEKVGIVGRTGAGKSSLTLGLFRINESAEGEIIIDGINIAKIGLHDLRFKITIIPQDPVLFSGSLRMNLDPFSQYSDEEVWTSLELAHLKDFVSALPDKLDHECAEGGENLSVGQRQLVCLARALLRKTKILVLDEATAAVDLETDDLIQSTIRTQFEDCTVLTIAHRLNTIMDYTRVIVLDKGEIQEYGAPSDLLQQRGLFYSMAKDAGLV

Structure (SMILES)	inhibition (INH)
COc1cc2c(cc1OC)CN(CCc1ccc(NC(=O)c3ccccc3NC(=O)c3ccc(F)cc3[N+](=O)[O-])cc1)CC2	Not Active

System: not listed separately
Assay: Potentiation of paclitaxel-induced cytotoxicity against human LCC6 cells at 200 nM after 72 hrs by SRB assay relative to control
Type: functional
Conditions: not given

Structure (SMILES)	fold change (FC)
COc1cc2c(cc1OC)CN(CCc1ccc(NC(=O)c3ccccc3NC(=O)c3ccc(F)cc3[N+](=O)[O-])cc1)CC2	1.1

Target: T1, ATP-dependent translocase ABCB1
Assay: Inhibition of p-glycoprotein in human LCC6/MDR cells assessed as increase of paclitaxel-induced cytotoxicity at 200 nM after 72 hrs by SRB assay relative to control
Type: cell-based
Conditions: 0.2 µM

Structure (SMILES)	fold change (FC)
COc1cc2c(cc1OC)CN(CCc1ccc(NC(=O)c3ccccc3NC(=O)c3ccc(F)cc3[N+](=O)[O-])cc1)CC2	35

System: MCF7
Assay: Potentiation of mitoxantrone-induced cytotoxicity against human MCF7 cells at 200 nM after 72 hrs by SRB assay relative to control
Type: functional
Conditions: not given

Structure (SMILES)	fold change (FC)
COc1cc2c(cc1OC)CN(CCc1ccc(NC(=O)c3ccccc3NC(=O)c3ccc(F)cc3[N+](=O)[O-])cc1)CC2	1.7

Target: T3, Broad substrate specificity ATP-binding cassette transporter ABCG2 (Homo sapiens, UniProt Q9UNQ0)
T3 sequence (Q9UNQ0 whole entry): T2 sequence (Q9UNQ0 whole entry)
Assay: Inhibition of BCRP in human MCF-7 FLV1000 cells assessed as increase of mitoxantrone-induced cytotoxicity at 200 nM after 72 hrs by SRB assay relative to control
Type: cell-based
Conditions: 0.2 µM

Structure (SMILES)	fold change (FC)
COc1cc2c(cc1OC)CN(CCc1ccc(NC(=O)c3ccccc3NC(=O)c3ccc(F)cc3[N+](=O)[O-])cc1)CC2	46

System: HepG2
Assay: Potentiation of doxorubicin-induced cytotoxicity against human HepG2 cells at 200 nM after 72 hrs by SRB assay relative to control
Type: functional
Conditions: not given

Structure (SMILES)	fold change (FC)
COc1cc2c(cc1OC)CN(CCc1ccc(NC(=O)c3ccccc3NC(=O)c3ccc(F)cc3[N+](=O)[O-])cc1)CC2	0.76

Target: T1, ATP-dependent translocase ABCB1
Assay: Inhibition of p-glycoprotein in human HepG2 cells assessed as increase of doxorubicin-induced cytotoxicity at 200 nM after 72 hrs by SRB assay relative to control
Type: cell-based
Conditions: hepg2, 72 h, 0.2 µM

Structure (SMILES)	fold change (FC)
COc1cc2c(cc1OC)CN(CCc1ccc(NC(=O)c3ccccc3NC(=O)c3ccc(F)cc3[N+](=O)[O-])cc1)CC2	0.36

System: SW-620
Assay: Potentiation of doxorubicin-induced cytotoxicity against human SW620 cells at 200 nM after 72 hrs by SRB assay relative to control
Type: functional
Conditions: not given

Structure (SMILES)	fold change (FC)
COc1cc2c(cc1OC)CN(CCc1ccc(NC(=O)c3ccccc3NC(=O)c3ccc(F)cc3[N+](=O)[O-])cc1)CC2	1.6

Target: T1, ATP-dependent translocase ABCB1
Assay: Inhibition of p-glycoprotein in human SW620/AD300 cells assessed as increase of doxorubicin-induced cytotoxicity at 200 nM after 72 hrs by SRB assay relative to control
Type: cell-based
Conditions: sw-620, 72 h, 0.2 µM

Structure (SMILES)	fold change (FC)
COc1cc2c(cc1OC)CN(CCc1ccc(NC(=O)c3ccccc3NC(=O)c3ccc(F)cc3[N+](=O)[O-])cc1)CC2	3.62

System: SW-620
Assay: Cytotoxicity against human SW620 cells at 200 nM after 72 hrs by SRB assay
Type: cell-based
Conditions: sw-620, 72 h, 0.2 µM

Structure (SMILES)	Activity
COc1cc2c(cc1OC)CN(CCc1ccc(NC(=O)c3ccccc3NC(=O)c3ccc(F)cc3[N+](=O)[O-])cc1)CC2	Non-toxic

System: not listed separately
Assay: Cytotoxicity against human SW620/AD300 cells expressing p-glycoprotein at 200 nM after 72 hrs by SRB assay
Type: cell-based
Conditions: sw-620, 72 h, 0.2 µM

Structure (SMILES)	Activity
COc1cc2c(cc1OC)CN(CCc1ccc(NC(=O)c3ccccc3NC(=O)c3ccc(F)cc3[N+](=O)[O-])cc1)CC2	Non-toxic

System: HepG2
Assay: Cytotoxicity against human HepG2 cells at 200 nM after 72 hrs by SRB assay
Type: cell-based
Conditions: hepg2, 72 h, 0.2 µM

Structure (SMILES)	Activity
COc1cc2c(cc1OC)CN(CCc1ccc(NC(=O)c3ccccc3NC(=O)c3ccc(F)cc3[N+](=O)[O-])cc1)CC2	Non-toxic

System: HepG2
Assay: Cytotoxicity against human HepG2 cells expressing p-glycoprotein at 200 nM after 72 hrs by SRB assay
Type: cell-based
Conditions: hepg2, 72 h, 0.2 µM

Structure (SMILES)	Activity
COc1cc2c(cc1OC)CN(CCc1ccc(NC(=O)c3ccccc3NC(=O)c3ccc(F)cc3[N+](=O)[O-])cc1)CC2	Non-toxic

System: MCF7
Assay: Cytotoxicity against human MCF7 cells at 200 nM after 72 hrs by SRB assay
Type: cell-based
Conditions: mcf7, 72 h, 0.2 µM

Structure (SMILES)	Activity
COc1cc2c(cc1OC)CN(CCc1ccc(NC(=O)c3ccccc3NC(=O)c3ccc(F)cc3[N+](=O)[O-])cc1)CC2	Non-toxic

System: not listed separately
Assay: Cytotoxicity against human MCF-7 FLV1000 cells expressing BCRP at 200 nM after 72 hrs by SRB assay
Type: ADME, cell-based
Conditions: mcf-7 flv1000, 72 h, 0.2 µM

Structure (SMILES)	Activity
COc1cc2c(cc1OC)CN(CCc1ccc(NC(=O)c3ccccc3NC(=O)c3ccc(F)cc3[N+](=O)[O-])cc1)CC2	Non-toxic

System: not listed separately
Assay: Cytotoxicity against human LCC6 cells at 200 nM after 72 hrs by SRB assay
Type: cell-based
Conditions: lcc6, 72 h, 0.2 µM

Structure (SMILES)	Activity
COc1cc2c(cc1OC)CN(CCc1ccc(NC(=O)c3ccccc3NC(=O)c3ccc(F)cc3[N+](=O)[O-])cc1)CC2	Non-toxic

System: not listed separately
Assay: Cytotoxicity against human LCC6 cells expressing p-glycoprotein at 200 nM after 72 hrs by SRB assay
Type: cell-based
Conditions: lcc6, 72 h, 0.2 µM

Structure (SMILES)	Activity
COc1cc2c(cc1OC)CN(CCc1ccc(NC(=O)c3ccccc3NC(=O)c3ccc(F)cc3[N+](=O)[O-])cc1)CC2	Non-toxic

System: K562
Assay: Induction of UIC2 antibody binding to p-glycoprotein in human K562 cells at 0.5 uM preincubated for 10 mins followed by antibody addition measured after 45 mins by flow cytometry relative to tariquidar
Type: cell-based
Conditions: not given

Structure (SMILES)	Activity [%]
COc1cc2c(cc1OC)CN(CCc1ccc(NC(=O)c3ccccc3NC(=O)c3ccc(F)cc3[N+](=O)[O-])cc1)CC2	57.3

Target: T3, Broad substrate specificity ATP-binding cassette transporter ABCG2
Assay: Induction of 5D3 antibody binding to BCRP in human K562 cells at 0.5 uM preincubated for 10 mins followed by antibody addition measured after 45 mins by flow cytometry relative to tariquidar
Type: cell-based
Conditions: k562, 0.75 h

Structure (SMILES)	Activity [%]
COc1cc2c(cc1OC)CN(CCc1ccc(NC(=O)c3ccccc3NC(=O)c3ccc(F)cc3[N+](=O)[O-])cc1)CC2	119.1

Organism: Homo sapiens
Assay: Inhibition of p-glycoprotein (unknown origin) expressed in High five insect cell membranes assessed as ATP hydrolysis after 20 mins by colorimetric ATPase assay
Conditions: not given

Structure (SMILES)	inhibition
COc1cc2c(cc1OC)CN(CCc1ccc(NC(=O)c3ccccc3NC(=O)c3ccc(F)cc3[N+](=O)[O-])cc1)CC2	Dose-dependent effect

Target: T3, Broad substrate specificity ATP-binding cassette transporter ABCG2
Assay: Induction of BCRP (unknown origin) expressed in High five insect cell membranes assessed as ATP hydrolysis after 10 mins by colorimetric ATPase assay
Conditions: not given

Structure (SMILES)	Activity
COc1cc2c(cc1OC)CN(CCc1ccc(NC(=O)c3ccccc3NC(=O)c3ccc(F)cc3[N+](=O)[O-])cc1)CC2	Active
